In the NIST ThermoML archive (doi:10.1021/je300775u):

Assay: xn = mol fraction of the nth substance listed
Settings: 101 kPa, Liquid; for speed of sound: Pulse-echo method; for mass density: Vibrating tube method

ClCBr [bromochloromethane] + ClC(Cl)(Cl)Br
Settings | mass density, 293.15 K [kg/m3] | mass density, 298.15 K [kg/m3] | mass density, 303.15 K [kg/m3] | mass density, 308.15 K [kg/m3] | mass density, 313.15 K [kg/m3] | speed of sound, 293.15 K [m/s] | speed of sound, 298.15 K [m/s] | speed of sound, 303.15 K [m/s] | speed of sound, 308.15 K [m/s] | speed of sound, 313.15 K [m/s]
x2 = 0 | 1933.23 | 1921.71 | 1910.15 | 1898.51 | 1886.82 | 1001.2 | 986.1 | 971 | 955.9 | 940.8
x2 = 0.052 | 1938.2 | 1926.72 | 1915.19 | 1903.6 | 1891.94 | 992.8 | 977.9 | 962.9 | 947.9 | 933
x2 = 0.103 | 1942.79 | 1931.34 | 1919.85 | 1908.3 | 1896.67 | 985.2 | 970.4 | 955.5 | 940.7 | 925.9
x2 = 0.1538 | 1947.34 | 1935.88 | 1924.46 | 1912.93 | 1901.44 | 978.4 | 963.6 | 948.9 | 934.2 | 919.1
x2 = 0.2031 | 1951.55 | 1940.16 | 1928.76 | 1917.27 | 1905.74 | 972.2 | 957.5 | 942.8 | 928.1 | 913.6
x2 = 0.2551 | 1956.05 | 1944.71 | 1933.31 | 1921.86 | 1910.36 | 966.1 | 951.6 | 937 | 922.6 | 908.1
x2 = 0.305 | 1960.19 | 1948.82 | 1937.49 | 1926.18 | 1914.72 | 960.7 | 946.3 | 931.8 | 917.3 | 903
x2 = 0.3522 | 1963.98 | 1952.66 | 1941.28 | 1929.99 | 1918.58 | 956.4 | 942.1 | 927.8 | 913.5 | 898.9
x2 = 0.4063 | 1968.54 | 1957.3 | 1946.02 | 1934.68 | 1923.3 | 950.8 | 936.7 | 922.4 | 908.2 | 894
x2 = 0.4553 | 1972.41 | 1961.2 | 1949.96 | 1938.65 | 1927.29 | 946.7 | 932.6 | 918.4 | 904.2 | 890.3
x2 = 0.5058 | 1976.4 | 1965.21 | 1954 | 1942.75 | 1931.42 | 942.7 | 928.6 | 914.5 | 900.5 | 886.5
x2 = 0.5665 | 1981.04 | 1969.89 | 1958.74 | 1947.52 | 1936.26 | 938.2 | 924.2 | 910.3 | 896.4 | 882.6
x2 = 0.6027 | 1983.79 | 1972.67 | 1961.52 | 1950.31 | 1939.1 | 935.8 | 921.9 | 908 | 894.1 | 880.3
x2 = 0.6567 | 1987.81 | 1976.74 | 1965.63 | 1954.45 | 1943.26 | 932.3 | 918.5 | 904.7 | 891 | 877.2
x2 = 0.7046 | 1991.31 | 1980.21 | 1969.15 | 1958.12 | 1946.95 | 929.6 | 915.8 | 902 | 888.3 | 874.7
x2 = 0.7543 | 1994.91 | 1983.88 | 1972.83 | 1961.75 | 1950.61 | 926.9 | 913.2 | 899.5 | 885.9 | 872.3
x2 = 0.8025 | 1998.2 | 1987.2 | 1976.2 | 1965.14 | 1954.05 | 924.5 | 910.8 | 897.2 | 883.7 | 870.2
x2 = 0.8516 | 2001.94 | 1990.96 | 1979.93 | 1968.92 | 1957.85 | 922.3 | 908.7 | 895.1 | 881.6 | 868.3
x2 = 0.8996 | 2005.35 | 1994.38 | 1983.39 | 1972.42 | 1961.38 | 920.3 | 906.8 | 893.3 | 879.9 | 866.5
x2 = 0.9228 | 2007.14 | 1996.17 | 1985.15 | 1974.22 | 1963.19 | 919.8 | 906.3 | 892.9 | 879.4 | 865.9
